Ki, solubility and Protection data for 14 compounds are collected here from ChEMBL document CHEMBL1137896, “Synthesis and AMPA receptor antagonistic activity of a novel 7-imidazolyl-6-trifluoromethyl quinoxalinecarboxylic acid with a substituted phenyl group and improved its good physicochemical properties by introduced CF3 group” (Bioorg Med Chem Lett, 2004).

Data set [1] concerns the target Glutamate receptor ionotropic, AMPA (Rattus norvegicus, UniProt P19490+P19491+P19492+P19493). Description: Displacement of [3H]AMPA (5 nM) from ionotropic glutamate receptor AMPA of rat cerebral cortex synaptic membrane preparation. Format: tissue-based. In general terms: Displacement assays read how much labelled ligand stays bound in the presence of the test substance.

Data set [2] can be described thus: Solubility at pH 7.4. The note with it: buffer. It counts as physicochemical.
For data set [3], the system named is Rattus norvegicus. As to the kind of experiment: In vivo protective effect in focal ischemia rat model was determined after intravenous dosage at 2.5 mg/kg/h for 4 hr. It counts as functional.
Data set [4] concerns Rattus norvegicus. As to the kind of experiment: In vivo protective effect in focal ischemia rat model was determined after intravenous dosage at 15 mg/kg/h for 4 hr. It counts as functional.
The subject of data set [5] is Rattus norvegicus. As to the kind of experiment: In vivo protective effect in focal ischemia rat model was determined after intravenous dosage at 30 mg/kg/h for 4 hr. Format: functional.

In brackets after ≈: the same amount, converted by molar mass.

Usually Ki stands for the equilibrium dissociation constant of an inhibitor or competing ligand from its target. Read a low Ki as higher affinity. For the compound `O=C(Nc1cc(Cl)cc(Cl)c1)OCc1cn(-c2cc3nc(C(=O)O)c(O)nc3cc2C(F)(F)F)cn1`, the inhibitory constant (Ki) in data set [1] was 13 nM.

What is called solubility is the concentration that dissolves in the medium under given conditions. Low values mean a poorly soluble substance, high ones a readily soluble substance. With `O=C(Nc1ccc(C(=O)O)cc1)OCc1cn(-c2cc3nc(C(=O)O)c(O)nc3cc2C(F)(F)F)cn1`, the concentration in solution in data set [2] (solubility) came to 8290 µg/mL (≈ 16 mM). This compound showed a Ki in data set [1] of 16 nM. In the data set on Rattus norvegicus [3], this compound registered a Protection of 2.7.

For `O=C(Nc1ccc(C(=O)O)cc1)OCc1cn(-c2cc3nc(C(=O)O)c(O)nc3cc2[N+](=O)[O-])cn1`, the solubility in data set [2] amounted to 4860 µg/mL (≈ 9.83 mM). In the data set on Rattus norvegicus [3], this compound gave a Protection of 3.

On to `O=C(Nc1ccc(C(F)(F)F)cc1)OCc1cn(-c2cc3nc(C(=O)O)c(O)nc3cc2C(F)(F)F)cn1`, for which the inhibitory constant (Ki) in data set [1] was 29 nM.

In the case of `O=C(Nc1cccc(Br)c1)OCc1cn(-c2cc3nc(C(=O)O)c(O)nc3cc2C(F)(F)F)cn1`, in data set [1], the affinity corresponds to a Ki of 5.2 nM.

In data set [1], `O=C(Nc1cccc(C(=O)O)c1)OCc1cn(-c2cc3nc(C(=O)O)c(=O)[nH]c3cc2C(F)(F)F)cn1` showed a Ki of 35 nM.

With `O=C(NCc1ccccc1)OCc1cn(-c2cc3nc(C(=O)O)c(O)nc3cc2C(F)(F)F)cn1`, the affinity in data set [1], expressed as Ki, was 190 nM.

In the case of `O=c1[nH]c2cc(-n3ccnc3)c([N+](=O)[O-])cc2[nH]c1=O` [YM-90K], the concentration in solution in data set [2] (solubility) came to 1000 µg/mL (≈ 3.66 mM). The Protection with Rattus norvegicus [4] is on record as 2.8.

In data set [1], `O=C(Nc1ccc(Br)cc1)OCc1cn(-c2cc3nc(C(=O)O)c(O)nc3cc2C(F)(F)F)cn1` displayed a Ki of 20 nM.

For `COc1ccc(NC(=O)OCc2cn(-c3cc4nc(C(=O)O)c(O)nc4cc3C(F)(F)F)cn2)cc1`, in data set [1], the affinity corresponds to a Ki of 30 nM.

`O=C(O)Cn1c(=O)c(=O)[nH]c2cc([N+](=O)[O-])c(-n3ccnc3)cc21` [ZONAMPANEL]: the solubility in data set [2] was over 5000 µg/mL. This compound also yielded a Protection with Rattus norvegicus [5] of 0.5.

Take `O=C(O)c1nc2cc(-n3ccnc3)c(C(F)(F)F)cc2nc1O`: the Ki in data set [1] was determined as 86 nM.

`Cc1ccc(NC(=O)OCc2cn(-c3cc4nc(C(=O)O)c(O)nc4cc3C(F)(F)F)cn2)cc1`: the Ki in data set [1] came out at 20 nM.

In turn, `O=C(Nc1ccccc1)OCc1cn(-c2cc3nc(C(=O)O)c(O)nc3cc2C(F)(F)F)cn1` gave an inhibition constant (Ki) in data set [1] of 23 nM.
